By speed of sound is commonly meant the propagation velocity of pressure waves in the medium. The term mass density denotes mass per unit of volume.

Numbers after ± are expanded uncertainties.

The nature of the data set: mn = molality of the nth substance listed, in mol/kg. To be noted: 308.15 K, 100 kPa, Liquid, m1 = 0.0148.

On to `O=S(=O)([O-])[O-].[Ca+2]` [calcium sulfate] + O, for which the speed of sound (Single path-length method) amounted to 1521.4 ± 0.7 m/s. Further, the mass density (Vibrating tube method) was 995.9 ± 10 kg/m3.

Values taken from the NIST ThermoML archive (doi:10.1021/acs.jced.9b00354).
